Results on eight compounds are retold here after patent US20180064726A1, “Deuterium-Substituted Oxazepin Compounds” (Auspex Pharmaceuticals, Inc., priority 2016, published 2018).

Data set [1] has as its system patients with QT-3 (LQT3) syndrome. The note with it: cited from earlier work.
Data set [2] in a line: In vitro human liver microsomal stability assay. It counts as in vitro ADME. The note with it: human liver microsomes 0.5 mg per mL protein, NADPH-generating system, 1 μM test compound, 37±1° C., 0-60 min; for half-life at 1 μM: degradation half-life; for CLint scaled at 1 μM: read-out: Clearance %. The procedure: In Vitro Liver Microsomal Stability Assay
Human liver microsomal stability assays were conducted at 0.5 mg per mL liver microsome protein with an NADPH-generating system consisting of NADP (1 mM, pH 7.4), […] (5 mM, pH 7.4), and glucose-6-phosphate dehydrogenase (1 unit/mL).
Test compounds were prepared as solutions in DMSO and added to the assay mixture (1 μM, final concentration in incubation) to be incubated at 37±1° C. Reactions were initiated with the addition of cofactor and were stopped at 0, 15, 30, 45, and 60 min after cofactor addition with stop reagent (0.2 mL acetonitrile). Samples were centrifuged (920×g for 10 min at 10° C.) in 96-well plates. Supernatant fractions were analyzed by LC-MS/MS to determine the percent remaining and estimate the degradation half-life of the test compounds.
(In general: Liver microsomes are a subcellular fraction often used to study metabolism.)

On to “4-(pyrimidin-2-ylmethyl)-7-[4-(trifluoromethoxy)phenyl]-2,3,4,5-tetrahydro-1,4-benzoxazepin-5-one [Example 1]”, for which, in data set [1], the “effect on QTc interval” value is “shortening of the QTc interval”. As to `O=C1c2cc(-c3ccc(OC(F)(F)F)cc3)ccc2OCCN1Cc1ncccn1` [Example 1, 4-(pyrimidin-2-ylmethyl)-7-[4-(trifluoromethoxy)phenyl]-2,3,4,5-tetrahydro-1,4-benzoxazepin-5-one, reference compound], in data set [2], the half-life – broadly, how long it takes for the measured level to halve – at 1 μM was determined as 2.36 h and the CLint scaled at 1 μM worked out at 12.3 mL/min/kg. Consider `[2H]C([2H])(c1ncccn1)N1CCOc2ccc(-c3ccc(OC(F)(F)F)cc3)cc2C1=O` [Example 2, 4-(pyrimidin-2-ylmethyl-d2)-7-(4-(trifluoromethoxy)phenyl)-3,4-dihydrobenzo[f][1,4]oxazepin-5(2H)-one], for which, in data set [2], the half-life at 1 μM was determined as 9.52 h and the CLint scaled at 1 μM came to 3.04 mL/min/kg. The corresponding values for `[2H]C1([2H])CN(Cc2ncccn2)C(=O)c2cc(-c3ccc(OC(F)(F)F)cc3)ccc2O1` [Example 3, 4-(pyrimidin-2-ylmethyl)-7-[4-(trifluoromethoxy)phenyl]-2,3,4,5-tetrahydro(2,2-d2)-1,4-benzoxazepin-5-one] are 4.62 h and 6.27 mL/min/kg. Consider `[2H]C1([2H])COc2ccc(-c3ccc(OC(F)(F)F)cc3)cc2C(=O)N1Cc1ncccn1` [Example 4, 4-(pyrimidin-2-ylmethyl)-7-(4-(trifluoromethoxy)phenyl)-3,4-dihydrobenzo[f][1,4]oxazepin-5(2H)-one-3,3-d2], for which, in data set [2], the half-life at 1 μM worked out at 2.01 h and the CLint scaled at 1 μM is 14.4 mL/min/kg. As to `[2H]C1([2H])Oc2ccc(-c3ccc(OC(F)(F)F)cc3)cc2C(=O)N(Cc2ncccn2)C1([2H])[2H]` [Example 5, 4-(pyrimidin-2-ylmethyl)-7-[4-(trifluoromethoxy)phenyl]-2,3,4,5-tetrahydro(2,2,3,3-d4)-1,4-benzoxazepin-5-one], in data set [2], the half-life at 1 μM amounted to 1.35 h and the CLint scaled at 1 μM came to 21.5 mL/min/kg. As for `[2H]C([2H])(c1ncccn1)N1C(=O)c2cc(-c3ccc(OC(F)(F)F)cc3)ccc2OC([2H])([2H])C1([2H])[2H]` [Example 6, 4-[pyrimidin-2-yl(d2)methyl]-7-[4-(trifluoromethoxy)phenyl]-2,3,4,5-tetrahydro(2,2,3,3-d4)-1,4-benzoxazepin-5-one], in data set [2], the half-life at 1 μM was 1.51 h and the CLint scaled at 1 μM was found to be 19.2 mL/min/kg.

As for `[2H]c1c(-c2ccc(OC(F)(F)F)cc2)cc2c(c1[2H])OCCN(Cc1ncccn1)C2=O` [Example 7, 4-(pyrimidin-2-ylmethyl)-7-[4-(trifluoromethoxy)phenyl]-2,3,4,5-tetrahydro(8,9-d2)-1,4-benzoxazepin-5-one], in data set [2], the half-life at 1 μM was 2.32 h and the CLint scaled at 1 μM was 12.5 mL/min/kg.
